Assay results from US6114381A, “Non-heterocyclic β-phenyl-α-aminopropionic acid n-phenyl amides for treatment of neurotoxic injury” (priority 1998, dated 2000).
Structures can show the parent of a compound that is named as a salt. Where two headings read alike, the source gives them in different places.

Experiments:
PCP receptors = experiment: Radioreceptor assay (3H-TCP displacement, rat brain membranes); conditions: read-out: Ki apparent, 1 nM 3H-TCP, whole rat brain membranes, 1 h incubation, Cheng & Prusoff
[1] = system: CAl region of the hippocampus; experiment: Forebrain ischemia assay (carotid occlusion, CA1 hippocampal cell loss); type: in vivo, Mongolian gerbil; conditions: 30 mg/kg i.p. 30 min prior to carotid occlusion; 7 days after; n=6 vs 69 saline gerbils; Mann-Whitney U, p<0.005
Protocol: Male Mongolian gerbils, 50-70 gm, were used as subjects. Compound No. 4 (30 mg/kg) was injected i.p. 30 minutes prior to carotid occlusion into 6 gerbils. In preparation for surgical procedures, the animals were lightly anesthetized with methoxyflurane and placed upside down on a heated pad with the animal's snout within a nosecone. A mixture of 70 parts nitrous oxide, 30 parts oxygen and 0.5 part halothane was circulated through the nosecone to provide continuous anesthesia throughout the surgical procedure. A midline incision was made in the neck and the carotid arteries were exposed. A length of suture thread was placed under each carotid. The thread was then tightened around each carotid and pressure applied to the thread to insure flow was occluded. Flow was occluded for 4-5 minutes and then the thread was removed. The carotids were visually inspected to confirm that reflow had occurred. The wound was then closed with autoclips and the gerbils allowed to recover. Following surgery, the gerbils were kept alive for 7 days. They were anesthetized with 100 mg/kg sodium pentobarbital and perfused transcardially with saline (with heparin) followed by buffered formalin. The brain was removed, trimmed and prepared for histological processing. Sections (10 microns) were stained with thionin. […]

[2] = Behavioral assay (stereotyped behavior, PCP rating scale); type: in vivo, rat (male Sprague-Dawley)
Protocol: Compound No. 4 was tested by an in vivo assay which determined stereotypic behavior in rats treated with the compound. Male Sprague-Dawley rats weighing 200 to 250 g were used in the behavioral experiments. Each rat was used only once. Rats were anesthetized lightly with ether before a 20-gauge needle was used to make a hole in the rat's skull for i.c.v. injection of drugs at a later date. These rats were allowed to recover for at least 1 day before being used in the behavioral assays. On the day of the experiement, rats were placed individually into plastic rat cages and allowed at least 1 hr to acclimate before testing. Drugs were administered to rats in a random, single-blind fashion. Behavioral ratings were taken at 5-min intervals up to 1 hr after drug administration (i.p.) using the PCP rating scale as described by Sturgeon et al [Sturgeon, R. D., Fessler, R. G. and Meltzer, H. Y., "Behavioral Rating Scales for Accessing Phencyclidine-Induced Locomotor Activity. […] Dose-response curves for each treatment were determined at the time of maximal behavioral effect. […] ED50 values and dose-response curves were evaluated using a computerized Finney assay [Statistical Methods in Biological Assays, 2nd Edn., Hatner Pub. […] The ability of the Compound No. 4 to induce stereotyped behavior was assessed at 2.5, 5 and 10 minutes and thereafter every 5 min up to 1 hr after i.p. administration.

NMDA [3] = conditions: Anis et al, Br. J. Pharmacol. 1983; cited from earlier work
NMDA [4] = conditions: Berry et al, Eur. J. Pharm. 1983; binding and behavioral data; cited from earlier work
[5] = system: rat cerebral cortical membranes; conditions: Goldman et al, FEBS Lett.; cited from earlier work

SMILES | Ki (PCP receptors) | also measured
Cc1cc(O)cc(C)c1C[C@@H](N)C(=O)N1CCCc2ccccc21 [Compound No. 5, 1-[2R-amino-3-(4-hydroxy-2,6-dimethylphenyl)-1-oxopropyl]-1,2,3,4-tetrahydroquinoline, monohydrochloride] | 0.1 µM | –
Cc1cc(O)cc(C)c1C[C@H](N)C(=O)N1CCCc2ccccc21 [Compound No. 4, 1-[2S-amino-3-(4-hydroxy-2,6-dimethylphenyl)-1-oxopropyl]-1,2,3,4-tetrahydroquinoline, monohydrochloride] | 0.016 µM | cell loss in CA1 [1]: significantly reduced; ED50 ([2]; Rattus norvegicus, ip, rats, PCP rating scale, at time of maximal effect, read-out: ED50 for induction of stereotyped behavior): 11 mg/kg
Cc1cc(O)cc(C)c1C[C@H](N)C(=O)N1Cc2ccccc2CCc2ccccc21 [Compound No. 12, 5-[2S-amino-3-(4-hydroxy-2,6-dimethylphenyl)-1-oxopropyl]-5,6,11,12-tetrahydrodibenz[b,f]azocine, monohydrochloride] | 20 µM | –
c1csc(C2(N3CCCCC3)CCCCC2)c1 [TCP, reference compound] | 0.02 µM | –
c1ccc(C2(N3CCCCC3)CCCCC2)cc1 [PCP, Phencyclidine, reference compound] | 0.096 µM | time of peak effects (stereotyped behavior) ([2]; PCP 2.0-32 mg/kg i.p.): 15 min; reduction of excitatory effects of NMDA as compared to KA and QUIS (NMDA [3]): reduce selectively the excitatory effects of NMDA
COc1ccc2c(c1)CCCN2C(=O)[C@@H](N)Cc1c(C)cc(O)cc1C [Compound No. 9, 1-[2S-amino-3-(4-hydroxy-2,6-dimethylphenyl)-1-oxopropyl]-1,2,3,4-tetrahydro-6-methoxyquinoline, monohydrochloride] | 4.1 µM | –
Cc1cc(O)cc(C)c1C[C@H](N)C(=O)N(C)c1ccccc1 [Compound No. 3, αS-amino-4-hydroxy-N,2,6-trimethyl-N-phenylbenzenepropanamide, monohydrochloride] | 2.6 µM | –
N[C@@H](Cc1ccc(O)cc1)C(=O)N1CCCc2ccccc21 [Compound No. 1, 1-[2S-amino-3-(4-hydroxyphenyl)-1-oxopropyl]-1,2,3,4-tetrahydroquinoline, monohydrochloride] | 7.1 µM | –
CC1CCC(c2ccccc2)(N2CCCCC2)CC1 (stereo not drawn) [cis-N-(1-phenyl-4-methylcyclohexyl)piperidine] | – | stereoselective effect over corresponding isomer in reducing the excitatory action of NMDA (NMDA [4]): confirmed
COc1cc(C)c(C[C@H](N)C(=O)N2CCCc3ccccc32)c(C)c1 [Compound No. 10, 1-[2S-amino-3-(4-methoxy-2,6-dimethylphenyl)-1-oxopropyl]-1,2,3,4-tetrahydroquinoline, monohydrochloride] | 4.5 µM | –
CNC1(c2ccccc2Cl)CCCCC1=O (stereo not shown) [ketamine] | – | reduction of excitatory effects of NMDA as compared to KA and QUIS (NMDA [3]): reduce selectively the excitatory effects of NMDA
Cc1cc(O)cc(C)c1C[C@H](N)C(=O)N1CCCc2cccc(O)c21 [Compound No. 11, 1-[2S-amino-3-(4-hydroxy-2,6-dimethylphenyl)-1-oxopropyl]-1,2,3,4-tetrahydro-8-hydroxyquinoline, monohydrochloride] | 0.42 µM | –
Cc1cc(O)cc(C)c1C[C@H](N)C(=O)N1CC(C)Cc2ccccc21 (single isomer, unassigned) [Compound No. 7, 1-[2S-amino-3-(4-hydroxy-2,6-dimethylphenyl)-1-oxopropyl]-1,2,3,4-tetrahydro-3-methylquinoline, hydrochloride] | – | Ki (PCP receptors; hydrochloride): 0.88 µM
CC1CCCN(C2(c3ccccc3)CCCCC2)C1 (single isomer, unassigned; (+)) [(+)-PCMP, (+)-1-(1-phenylcyclohexyl)-3-methylpiperidine] | – | inhibition of specific binding of [3H]PCP [5]: potent inhibitor; stereoselective effect over corresponding isomer in reducing the excitatory action of NMDA (NMDA [4]): confirmed
Cc1cc(O)cc(C)c1C[C@H](N)C(=O)N1CC(C)Cc2ccccc21 (single isomer, unassigned) [Compound No. 6, 1-[-2S-amino-3-(4-hydroxy-2,6-dimethlyphenyl)-1-oxopropyl]-1,2,3,4-tetrahydro-3-methylquinoline, hydrochloride] | – | Ki (PCP receptors; hydrochloride): 0.24 µM
Cc1cc(O)cc(C)c1C[C@H](N)C(=O)N1CCc2ccccc21 [Compound No. 8, 1-[2S-amino-3-(4-hydroxy-2,6-dimethylphenyl)-1-oxopropyl]-2,3-dihydro-1H-indole, monohydrochloride] | 1.45 µM | –
Cc1cc(O)ccc1C[C@H](N)C(=O)N1CCCc2ccccc21 [Compound No. 2, 1-[2S-amino-3-(4-hydroxy-2-methylphenyl)-1-oxopropyl]-1,2,3,4-tetrahydroquinoline, monohydrochloride] | 0.8 µM | –
